≈ marks a conversion by molar mass, not a printed value.
How the values were obtained:
Test in all cases: ≥ marks a high value that may be exact or a test limit, other limits are often not marked, values filed in µg/mL are converted to µM
[1] = test system: Erwinia amylovora PMV 6076
[2] = test system: Pseudomonas syringae pv. actinidiae Psa3700.1.1
[3] = test system: Pseudomonas syringae pv. syringae EPS 94
[4] = test system: Xanthomonas campestris pv. Vesicatoria 2133-2
[5] = test system: Xanthomonas fragariae Xf349-9A
[6] = test system: Xanthomonas arboricola pv. pruni CFBP 5563
[7] = test system: Staphylococcus aureus
[8] = test system: Leuconostoc mesenteroides
[9] = test system: Micrococcus luteus
[10] = test system: Batrachochytrium dendrobatidis
[11] = test system: Streptococcus uberis
[12] = test system: Mannheimia haemolytica
[13] = test system: Bacillus cereus
[14] = test system: Escherichia coli
[15] = test system: Enterococcus faecalis
[16] = test system: Staphylococcus aureus ATCC 25923
[17] = test system: Candida albicans ATCC 10231
[18] = test system: Staphylococcus aureus ATCC 29213
[19] = test system: Enterococcus faecalis ATCC 29212
[20] = test system: Klebsiella pneumoniae ATCC 27736
[21] = test system: Staphylococcus aureus ATCC 33592
[22] = test system: Escherichia coli ATCC 9637
[23] = test system: Pseudomonas aeruginosa ATCC BAA-427
[24] = test system: Sporothrix schenckii
[25] = test system: Streptococcus gordonii ATCC 10558
[26] = test system: Actinomyces viscosus ATCC 15987
[27] = test system: Bacillus subtilis ATCC 6633
[28] = test system: Limosilactobacillus fermentum ATCC 9338
[29] = test system: Staphylococcus aureus ATCC 700698
[30] = test system: Staphylococcus aureus ATCC BAA-44
[31] = test system: Lactobacillus acidophilus ATCC 4356
[32] = test system: Streptococcus sobrinus ATCC 6715
[33] = test system: Candida parapsilosis ATCC 22019
[34] = test system: Staphylococcus aureus ATCC 700699
[35] = test system: Streptococcus mutans UA159
[36] = test system: Lacticaseibacillus casei ATCC 393
[37] = test system: Streptococcus sanguinis ATCC 10556
[38] = test system: Cryptococcus neoformans
[39] = test system: Actinomyces naeslundii ATCC 12104
[40] = test system: Bacillus subtilis IFO 3336
[41] = test system: Escherichia coli IFO 3301
[42] = test system: Photobacterium damselae subsp. piscicida Sp 9587
[43] = test system: Vibrio anguillarum NCIMB 829
[44] = test system: Escherichia coli JCM 1649
[45] = test system: Staphylococcus aureus IAM 1011
[46] = test system: Salmonella typhimurium
[47] = test system: Aeromonas salmonicida NCIMB 1102
[48] = test system: Bacillus subtilis IAM 1026
[49] = test system: Shewanella putrefaciens IAM 1509
[50] = test system: Vibrio parahaemolyticus Vp+1

CSCC[C@H](NC(=O)[C@@H](NC(=O)[C@H](Cc1ccc(O)cc1)NC(=O)[C@H](CO)NC(=O)[C@H](CS)NC(=O)[C@@H](N)Cc1ccc(O)cc1)[C@@H](C)O)C(=O)N[C@@H](CCC(=O)O)C(=O)N[C@@H](C)C(N)=O [YCSYTMEA]
MIC [1]: ≥ 50 µM
MIC [2]: ≥ 50 µM
MIC [3]: ≥ 50 µM
MIC [4]: ≥ 50 µM
MIC [5]: ≥ 50 µM
MIC [6]: ≥ 50 µM

CSCC[C@H](N=C(O)[C@H](CC(C)C)N=C(O)CN)C(O)=N[C@@H](CO)C(O)=N[C@H](C(O)=N[C@@H](CC(C)C)C(O)=NCC(O)=N[C@@H](Cc1cnc[nH]1)C(O)=N[C@@H](C)C(O)=N[C@H](C(O)=NCC(O)=N[C@@H](CC(=N)O)C(O)=N[C@H](C(O)=N[C@@H](CC(C)C)C(O)=NCC(O)=NCC(O)=N[C@@H](CC(C)C)C(O)=N[C@@H](Cc1ccccc1)C(O)=N[C@@H](CCCCN)C(=O)N1CCC[C@H]1C(O)=N[C@@H](CCCCN)C(=O)O)C(C)C)C(C)C)C(C)C [GLMSVLGHAVGNVLGGLFKPKS]
MIC [7]: 45.8 µM (≈ 96 µg/mL)
MIC [8]: 11.5 µM (≈ 24 µg/mL)
MIC [9]: 0.688 µM (≈ 1.44 µg/mL)
MIC [10]: ≥ 100 µM
MIC [11]: 22.9 µM (≈ 48 µg/mL)
MIC [12]: 0.367 µM (≈ 0.768 µg/mL)
MIC [13]: 5.73 µM (≈ 12 µg/mL)
MIC [14]: 22.9 µM (≈ 48 µg/mL)
MIC [15]: ≥ 68.8 µM

CC[C@H](C)[C@H](NC(=O)[C@H](C)NC(=O)[C@H](CCCCN)NC(=O)CNC(=O)[C@H](C)NC(=O)[C@H](Cc1cnc[nH]1)NC(=O)[C@@H](NC(=O)[C@H](C)NC(=O)CNC(=O)[C@H](CCCCN)NC(=O)[C@@H](NC(=O)[C@H](CC(C)C)NC(=O)[C@H](Cc1c[nH]c2ccccc12)NC(=O)CNC(=O)[C@H](Cc1ccccc1)NC(=O)[C@@H](N)Cc1ccccc1)[C@@H](C)CC)[C@@H](C)CC)C(=O)N[C@@H](Cc1cnc[nH]1)C(=O)NCC(=O)N[C@@H](CC(C)C)C(=O)N[C@H](C(=O)N[C@@H](Cc1cnc[nH]1)C(=O)N[C@@H](CCCN=C(N)N)C(=O)N[C@@H](CCCN=C(N)N)C(=O)N[C@@H](CCCN=C(N)N)C(=O)N[C@@H](Cc1cnc[nH]1)C(=O)O)[C@@H](C)CC [FFGWLIKGAIHAGKAIHGLIHRRRH]
MIC [16]: 3 µM (≈ 8.68 µg/mL)
MIC [17]: 6.8 µM (≈ 19.7 µg/mL)
MIC [18]: 1.6 µM (≈ 4.63 µg/mL)
MIC [19]: 3.91 µM (≈ 11.3 µg/mL)
MIC [20]: 3 µM (≈ 8.68 µg/mL)
MIC [21]: 1.6 µM (≈ 4.63 µg/mL)
MIC [22]: 3.4 µM (≈ 9.83 µg/mL)
MIC [23]: 6.8 µM (≈ 19.7 µg/mL)
MIC [24]: 13.6 µM (≈ 39.3 µg/mL)
MIC [25]: 2.77 µM (≈ 8 µg/mL)
MIC [26]: 2.77 µM (≈ 8 µg/mL)
MIC [27]: 6 µM (≈ 17.4 µg/mL)
MIC [28]: 1.38 µM (≈ 4 µg/mL)
MIC [29]: 3 µM (≈ 8.68 µg/mL)
MIC [30]: 1.6 µM (≈ 4.63 µg/mL)
MIC [31]: 1.96 µM (≈ 5.66 µg/mL)
MIC [32]: 1.38 µM (≈ 4 µg/mL)
MIC [33]: 3 µM (≈ 8.68 µg/mL)
MIC [34]: 1.6 µM (≈ 4.63 µg/mL)
MIC [35]: 1.38 µM (≈ 4 µg/mL)
MIC [36]: 1.38 µM (≈ 4 µg/mL)
MIC [37]: 1.96 µM (≈ 5.66 µg/mL)
MIC [38]: 3 µM (≈ 8.68 µg/mL)
MIC [39]: 2.77 µM (≈ 8 µg/mL)

NC(N)=NCCC[C@H](NC(=O)[C@H](Cc1cnc[nH]1)NC(=O)[C@H](CCCN=C(N)N)NC(=O)[C@H](Cc1cnc[nH]1)NC(=O)[C@H](CCCN=C(N)N)NC(=O)[C@H](Cc1cnc[nH]1)NC(=O)[C@@H](N)CCCN=C(N)N)C(=O)N[C@@H](Cc1cnc[nH]1)C(=O)O [RHRHRHRH]
MIC [40]: 8.39 µM (≈ 10 µg/mL)
MIC [41]: 8.39 µM (≈ 10 µg/mL)

CC[C@H](C)[C@H](NC(=O)CNC(=O)CNC(=O)[C@@H](NC(=O)[C@@H](N)Cc1ccccc1)[C@@H](C)CC)C(=O)N[C@H](C(=O)N[C@@H](CO)C(=O)N[C@@H](Cc1ccccc1)C(=O)N[C@@H](Cc1ccccc1)C(=O)N[C@@H](CCCCN)C(=O)N[C@@H](CCCN=C(N)N)C(=O)N[C@@H](CC(C)C)C(=O)N[C@@H](Cc1ccccc1)C(=O)O)[C@@H](C)CC [FIGGIISFFKRLF]
MIC [42]: 4.05 µM (≈ 6.25 µg/mL)
MIC [43]: 8.09 µM (≈ 12.5 µg/mL)
MIC [44]: ≥ 32.4 µM
MIC [45]: 2.03 µM (≈ 3.13 µg/mL)
MIC [46]: ≥ 32.4 µM
MIC [47]: ≥ 32.4 µM
MIC [48]: 2.03 µM (≈ 3.13 µg/mL)
MIC [49]: 4.05 µM (≈ 6.25 µg/mL)
MIC [50]: 16.2 µM (≈ 25 µg/mL)

From DBAASP
